Experiments:
[1] = tested on: OVA; assay: Anti-OVA antibody ELISA of mouse serum; format: in vivo; details: OVA-immunized mice, Day 28; 100 = limit of detection (FIG. 5)
Source text: Serum of mice immunized with OVA antigen alone (None) or formulated with SLA archaeosomes, other adjuvants (Poly(I:C), Resiquimod (R848), CpG, MPLA, QS-21, Pam3CSK4) or SLA in combination with other adjuvants was collected on Day 28 (7 days post 2nd immunization by intramuscular route) and analyzed for antigen-specific IgG antibodies by ELISA. Grouped data is presented as geometric mean titer+95% Confidence Interval (n=10/group).
Serum of mice immunized with OVA antigen alone (none) or formulated with SLA archaeosomes, other adjuvants (Poly(I:C), Resiquimod (R848), CpG, MPLA, QS-21, Pam3CSK4) or SLA in combination with other adjuvants was collected on Day 28 (7 days post 2nd immunization) and analyzed for antigen-specific IgG2c antibodies by ELISA. Grouped data is presented as geometric mean titer+95% Confidence Interval (n=10/group).
The levels of anti-OVA or anti-HBsAg antibodies (Abs) in mouse serum were quantified by ELISA using 96-well high-binding ELISA plates (Thermo Fisher Scientific, Waltham, MA, USA) coated overnight at room temperature (RT) with 100 μL of 10 μg/mL OVA (Sigma-Aldrich, St. Louis, MO, USA) in PBS or 1 μg/mL HBsAg (Fitzgerald Industries International) in 16 mM sodium carbonate/34 mM sodium bicarbonate buffer, pH 9.6 (Sigma-Aldrich). […] Bound IgG Abs were detected spectrophotometrically at 450 nm. […]

[2] = tested on: SARS-CoV-2 spike protein (SmT1); assay: SARS-CoV-2 Spike-specific IgG ELISA in hamsters; format: in vivo, Syrian Golden hamsters; details: 3 μg SmT1 i.m. Day 0 only, serum Day 34 (FIG. 15 lower)

Row | Compound | anti-OVA IgG2c titer [1] | Anti-spike IgG GMT, prime only regimen [2]
1 | CC(C)CCCC(C)CCCC(C)CCCC(C)CCOC[C@@H](CO[C@@H]1O[C@H](CO)[C@@H](O[C@@H]2O[C@H](COS(=O)(=O)O)[C@H](O)[C@H](O)[C@H]2O)[C@H](O)[C@H]1O)OCCC(C)CCCC(C)CCCC(C)CCCC(C)C (stereo partly drawn) [SLA, 6′-sulfate-β-D-Galp-(1,4)-β-D-Glcp-(1,1)-archaeol] | 100 | 6,050
2 | polyinosinic-polycytidylic acid [Poly(I:C), reference compound] | 5420 | 

Source: patent publication US12661397B2, “Adjuvant comprising a glycoarchaeol and an immunostimulant” (priority 2021, dated 2026)
